Measured values published in article PMC12775434, “Ultra-large virtual screening unveils potent agonists of the neuromodulatory orphan receptor GPR139” (Nature Communications, 2025).
“And” between values parts separate entries of the source, which are not always exact repeats. Identical values can stand only once.

Biological target: T1, GPR139 (Gi2 activation) (Homo sapiens, UniProt Q6DWJ6)
T1 construct: expressed in transfected cells; host or cells: HEK293A (transient, Lipofectamine 2000)
T1 sequence (Q6DWJ6 1-353): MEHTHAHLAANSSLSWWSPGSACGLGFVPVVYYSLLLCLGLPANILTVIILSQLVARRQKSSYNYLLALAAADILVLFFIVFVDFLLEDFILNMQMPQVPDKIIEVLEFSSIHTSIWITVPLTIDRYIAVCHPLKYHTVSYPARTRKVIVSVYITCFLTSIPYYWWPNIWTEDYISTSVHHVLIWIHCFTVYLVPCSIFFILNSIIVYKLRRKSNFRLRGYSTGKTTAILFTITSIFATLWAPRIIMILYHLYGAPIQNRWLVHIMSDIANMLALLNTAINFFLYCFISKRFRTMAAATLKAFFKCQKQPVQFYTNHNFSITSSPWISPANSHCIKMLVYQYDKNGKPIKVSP
Assay: BRET G protein activation (dissociation) assay, Gi2, HEK293A
Type: cell-based
Conditions: for Emax: HEK293-A, normalized to JNJ-63533054 (JNJ(S)); for EC50: Supplementary Table 6, read-out: pEC50 Gi2 (converted); for G protein activation, Gi2: individual replicates
Method: Primary screening and pharmacological characterization of compounds were performed using a CHO-K1 cell line that stably expresses human GPR139 (GPR139-CHOk1). The GPR139-CHOk1 cell line was kindly provided by H. Lundbeck A/S, Denmark[24]. GPR139-CHOk1 cells were grown in Ham’s F-12 Kaighn’s Modification Medium (ThermoFisher #21127030) supplemented with 10% dialyzed fetal bovine serum (US origin, ThermoFisher #26400044), 100 units/mL Penicillin-Streptomycin (ThermoFisher #15140122), and 1 mg/mL Geneticin (ThermoFisher #11811031). […] M1R-CHOk1 cells were purchased from The Missouri S&T cDNA Resource Center (#CEM100TN00). M1R-CHOk1 cells were grown in Ham’s F12 Medium (ThermoFisher #21765029) supplemented with 10% fetal bovine serum (Brazilian origin, ThermoFisher #10270106), 100 units/mL Penicillin-Streptomycin, and 0.25 mg/mL Geneticin. HEK293A cells transiently transfected with GPR139 were used for additional pharmacological assessment of signaling pathways activated by GPR139. HEK239A cells were generously provided by Dr. Asuka Inoue, Tohoku University, Japan. HEK293A cells were grown in Dulbecco’s Modified Eagle Medium (ThermoFisher #31966047) supplemented with 10% dialyzed fetal bovine serum and 100 units/mL Penicillin-Streptomycin. Cell lines were maintained at 37 °C in humidified incubator equilibrated with 5% CO2.
The G protein dissociation assay developed by the lab of Kirill A. Martemyanov was used to measure the coupling of multiple G proteins by GPR139[57]. The assay was performed as described previously with minor modifications. HEK293A cells were reverse transfected 20–24 h prior to assay. 50,000 cells were plated in each well of white opaque tissue culture treated 96-well plates (PerkinElmer #6005680) previously coated with poly-D-lysine. Transfection solutions were prepared as described, and 10 µL transfection solution was mixed with 100 µL cells in each well. The cells in each well were transfected with 18.9 ng GPR139, 6.3 ng Venus 1-155 Gγ2, 6.3 ng Venus 159-239 Gβ1, 6.3 ng masGRK3ct-NanoLuc and 12.6 ng Gαi2, 12.6 ng Gαi3, 12.6 ng GαoA, 12.6 ng Gαq or 25.2 ng Gα12 using 375 nL Lipofectamine 2000 Transfection Reagent. Transfections with Gαq and Gα12 contained 6.3 ng DNA of the active subunit S1 of pertussis toxin (PTX-S1). Each transfection was normalized to 150 ng total DNA with pcDNA3.1. The BRET biosensors were a kind gift from the Martemyanov lab. On the day of the experiment the cells were washed with HEPES buffer. Test compounds were diluted in HEPES buffer from DMSO stocks (final DMSO concentration of maximally 0.3%). NanoLuc Luciferase substrate NanoGlo—furimazine (Promega #N1120) was diluted 1000-fold (final) in HEPES buffer. NanoGlo and test compounds were added, and measurements were performed after 10 s for Gi3, 15 s for Gi2 and GoA, 20 s for Gq, and 90 s for G12—the timepoint where maximal signal occurred with each G protein, ensuring proper determination of the potency for the G protein coupling. Simultaneous dual emission was measured at 535 nm and 475 nm on LUMIstar Omega Microplate Reader (BMG Labtech) at room temperature. The BRET ratio of 535 nm/475 nm (Venus/NanoLuc), reflecting the dissociation of the G protein heterotrimer, was used to determine the G protein activation. The basal BRET ratio obtained with buffer condition was subtracted from the absolute BRET ratio at a given test compound concentration, and the responses were normalized to the one obtained with 10 µM JNJ-63533054 for the activation of Gi2.
Pharmacological data and statistical analyses were performed in GraphPad Prism v9–10 (Graphpad Software Inc., San Diego, CA), which are also specifically described in the figure and table legends. […]

| Emax [%] | EC50 [nM] | Structure (SMILES) | G protein activation, Gi2 (log [compound] M -4.5, listed as JNJ (S)) | G protein activation, Gi2 (log [compound] M -5.0, listed as JNJ (S)) | G protein activation, Gi2 (log [compound] M -5.5, listed as JNJ (S)) | G protein activation, Gi2 (log [compound] M -6.0, listed as JNJ (S)) | G protein activation, Gi2 (log [compound] M -6.5, listed as JNJ (S)) | G protein activation, Gi2 (log [compound] M -7.0, listed as JNJ (S)) | G protein activation, Gi2 (log [compound] M -7.5, listed as JNJ (S)) | G protein activation, Gi2 (log [compound] M -8.0, listed as JNJ (S)) | G protein activation, Gi2 (log [compound] M -4.5) | G protein activation, Gi2 (log [compound] M -5.0) | G protein activation, Gi2 (log [compound] M -5.5) | G protein activation, Gi2 (log [compound] M -6.0) | G protein activation, Gi2 (log [compound] M -6.5) | G protein activation, Gi2 (log [compound] M -7.0) | G protein activation, Gi2 (log [compound] M -7.5) | G protein activation, Gi2 (log [compound] M -8.0) |
| --- | --- | --- | --- | --- | --- | --- | --- | --- | --- | --- | --- | --- | --- | --- | --- | --- | --- | --- |
| 109 ± 1 | 50.1 | CC(NC(=O)CNC(=O)c1cccc(Cl)c1)c1ccccc1 (stereo not shown) [JNJ-63533054, reference compound] | 109 % of JNJ-63533054 at Gi2 and 111 % of JNJ-63533054 at Gi2 and 108 % of JNJ-63533054 at Gi2 | 106 % of JNJ-63533054 at Gi2 and 107 % of JNJ-63533054 at Gi2 and 108 % of JNJ-63533054 at Gi2 | 107 % of JNJ-63533054 at Gi2 and 103 % of JNJ-63533054 at Gi2 and 104 % of JNJ-63533054 at Gi2 | 102 % of JNJ-63533054 at Gi2 and 99 % of JNJ-63533054 at Gi2 and 98 % of JNJ-63533054 at Gi2 | 92 % of JNJ-63533054 at Gi2 and 85 % of JNJ-63533054 at Gi2 (2×) | 75 % of JNJ-63533054 at Gi2 and 67 % of JNJ-63533054 at Gi2 and 70 % of JNJ-63533054 at Gi2 | 49 % of JNJ-63533054 at Gi2 and 44 % of JNJ-63533054 at Gi2 (2×) | 21 % of JNJ-63533054 at Gi2 (2×) and 20 % of JNJ-63533054 at Gi2 |  |  |  |  |  |  |  |  |
| 88 ± 11 | 794 | Cc1cscc1-c1nc(CC(=O)N[C@H](C)c2ccccc2)no1 [1.1(R)] |  |  |  |  |  |  |  |  | 74 % of JNJ-63533054 at Gi2 and 72 % of JNJ-63533054 at Gi2 and 95 % of JNJ-63533054 at Gi2 | 74 % of JNJ-63533054 at Gi2 and 67 % of JNJ-63533054 at Gi2 and 91 % of JNJ-63533054 at Gi2 | 63 % of JNJ-63533054 at Gi2 and 47 % of JNJ-63533054 at Gi2 and 77 % of JNJ-63533054 at Gi2 | 51 % of JNJ-63533054 at Gi2 and 35 % of JNJ-63533054 at Gi2 and 64 % of JNJ-63533054 at Gi2 | 30 % of JNJ-63533054 at Gi2 and 18 % of JNJ-63533054 at Gi2 and 40 % of JNJ-63533054 at Gi2 | 9 % of JNJ-63533054 at Gi2 and 1.06 % of JNJ-63533054 at Gi2 and 24 % of JNJ-63533054 at Gi2 | 6 % of JNJ-63533054 at Gi2 and -1.09 % of JNJ-63533054 at Gi2 and 22 % of JNJ-63533054 at Gi2 | -2.65 % of JNJ-63533054 at Gi2 and -5 % of JNJ-63533054 at Gi2 and 18 % of JNJ-63533054 at Gi2 |
| 95 ± 5 | 50.1 | Cc1cscc1-c1nc(CC(=O)N[C@@H](C)c2ccccc2)no1 [1.1(S)] |  |  |  |  |  |  |  |  | 94 % of JNJ-63533054 at Gi2 (2×) and 104 % of JNJ-63533054 at Gi2 | 90 % of JNJ-63533054 at Gi2 (2×) and 104 % of JNJ-63533054 at Gi2 | 86 % of JNJ-63533054 at Gi2 and 80 % of JNJ-63533054 at Gi2 and 99 % of JNJ-63533054 at Gi2 | 86 % of JNJ-63533054 at Gi2 and 80 % of JNJ-63533054 at Gi2 and 99 % of JNJ-63533054 at Gi2 | 82 % of JNJ-63533054 at Gi2 and 74 % of JNJ-63533054 at Gi2 and 89 % of JNJ-63533054 at Gi2 | 63 % of JNJ-63533054 at Gi2 and 57 % of JNJ-63533054 at Gi2 and 72 % of JNJ-63533054 at Gi2 | 36 % of JNJ-63533054 at Gi2 and 35 % of JNJ-63533054 at Gi2 and 49 % of JNJ-63533054 at Gi2 | 14 % of JNJ-63533054 at Gi2 and 11 % of JNJ-63533054 at Gi2 and 32 % of JNJ-63533054 at Gi2 |
| 86 ± 4 | 3980 | C[C@@H](NC(=O)CNC(=O)c1cccc(Cl)c1)c1ccccc1 [JNJ(R), reference compound] |  |  |  |  |  |  |  |  | 73 % of JNJ-63533054 at Gi2 and 81 % of JNJ-63533054 at Gi2 and 77 % of JNJ-63533054 at Gi2 | 61 % of JNJ-63533054 at Gi2 and 62 % of JNJ-63533054 at Gi2 and 65 % of JNJ-63533054 at Gi2 | 41 % of JNJ-63533054 at Gi2 and 43 % of JNJ-63533054 at Gi2 and 42 % of JNJ-63533054 at Gi2 | 16 % of JNJ-63533054 at Gi2 and 23 % of JNJ-63533054 at Gi2 and 21 % of JNJ-63533054 at Gi2 | 6 % of JNJ-63533054 at Gi2 and 7 % of JNJ-63533054 at Gi2 and 10 % of JNJ-63533054 at Gi2 | -0.885 % of JNJ-63533054 at Gi2 and 0.48 % of JNJ-63533054 at Gi2 and 10 % of JNJ-63533054 at Gi2 | 0.698 % of JNJ-63533054 at Gi2 and -1 % of JNJ-63533054 at Gi2 and 11 % of JNJ-63533054 at Gi2 | -0.866 % of JNJ-63533054 at Gi2 and -1.55 % of JNJ-63533054 at Gi2 and 11 % of JNJ-63533054 at Gi2 |
